# From US9801858B2, “Progress-supressing or improving agent for chronic kidney disease” (NIPPON ZOKI PHARMACEUTICAL CO., LTD., priority 2014, dated 2017)
# “Also recorded” adds a separate entry of the source. Like-named read-outs stand apart in the source and are kept apart here.
# Key:
# [1] = tested on: rats with chronic renal failure; settings: adenine-induced chronic renal failure; cited from earlier work
# [2] = tested on: patients with CKD (rapidly-progressive and slowly-progressive); assay: new clinical tests: investigational drug orally once daily for 24 weeks, CKD stage 3 or 4; format: in vivo, human; settings: for progress of worsening of the renal function (inclination of regression line to 1/sCr, before vs after): 24 weeks
# Description: During such a period, a good idea has occurred that the effect of the present compound is investigated after dividing the patients with CKD into groups where worsening of the renal function is rapid and is not. As a result, the patients with CKD were divided into a group where changes in the reciprocal sCr value (1/sCr) per month before administration of the test drug are 0.01 dL/mg or more and worsening of the renal function is rapidly progressing (hereinafter, that will be referred to as “rapidly progressive CKD patients”) and another group where said changes are less than 0.01 dL/mg (hereinafter, that will be referred to as “slowly progressive CKD patients”) and clinical tests comparing the effect of the present compound were carried out. (Hereinafter, that will be referred to as “new clinical tests”.) Such a yardstick where the changes in the reciprocal sCr value are 0.01 dL/mg or more followed the yardstick adopted in the application of “Kremezin (Registered Trade Mark)” which is the above-mentioned spherical adsorptive carbon preparation. Further, in the new clinical tests, dose of the present compound was increased to some extent so as to find the difference from the results in the old clinical tests. Summary and result of the new clinical tests will be mentioned as follows.
# A clinical test for evaluating the efficacy and the safety of the present compound was conducted using the patients where the CKD stage was 3 or 4 as the object. Persons who meet the following selection criteria were selected from the patients who were diagnosed as CKD and receiving a conservation therapy. • Sex is withdrawn from the consideration. Pregnant women and mothers suckling a baby are however excluded. • Age is from 20 to 75 years old. • GFR value is 15 to 59. • Patients where the serum creatinine (sCr) value is within a range of 1.5 to 5.0 mg/dL at the start of the test, the measuring frequencies from 52 weeks before the test until the start of the test are thrice or more and the difference in the tested values in the initial and the final stages is 0.2 mg/dL or more (showing a rise). • Patients where a therapy with a pharmaceutical agent which is thought to suppress the progress of CKD (such as a spherical adsorptive carbon preparation) or a diet therapy is newly started during three month before the start of the test are excluded. • Moreover, patients having a symptom of cerebrovascular disturbance, patients with infectious disease and patients with peptic ulcer are excluded.
# After that, the objects were divided into the rapidly-progressive CKD patients and slowly-progressive CKD patients.
# As a result, in the new clinical tests, the groups to which the tablets containing the present compound as an active ingredient (test drug) are administered and to which the tablets containing no active ingredient though being undistinguishable from the test drug are divided into six groups in total. Thus, they are three groups for slowly-progressive CKD patients comprising a placebo-administered group, a 800 mg test drug-administered group and a 1600 mg test drug-administered group and other three groups for a rapidly-progressive CKD patients comprising a placebo-administered, a 800 mg test drug-administered group and a 1600 mg test drug-administered group whereby there are six groups in total. The weight mentioned hereinabove is a weight of the present compound contained in the test drug and is a dose for one day. […]
# [3] = tested on: patients with diabetic CRF; settings: cited from earlier work
smiles,measurement,setting,value
"CN1C(=O)NC(=O)C1O (stereo not shown) [the present compound, 5-hydroxy-1-methylhydantoin]",action on uremic toxin such as urea nitrogen and creatinine,[1],action of lowering the uremic toxin
same,"progress of worsening of the renal function (inclination of regression line to 1/sCr, before vs after)","[2]; 800 mg/day, rapidly-progressive CKD patients (five test subjects), Dunnett test",significantly suppressed or improved; also recorded: a downward-sloping inclination becomes somewhat upward rather than moderate
same,"progress of worsening of the renal function (inclination of regression line to 1/sCr, before vs after)","[2]; 800 mg/day, slowly-progressive CKD patients",No such an effect was achieved
same,"progress of worsening of the renal function (inclination of regression line to 1/sCr, before vs after)","[2]; 1600 mg/day, rapidly-progressive CKD patients",a certain effect was noted in a rapidly-progressive CKD patient but the effect was not so significant
same,"progress of worsening of the renal function (inclination of regression line to 1/sCr, before vs after)","[2]; 1600 mg/day, slowly-progressive CKD patients",No effect was noted
same,side effect / safety,"[2]; all cases including the 1600 mg/day-administered group, 24 weeks oral",almost no side effect is noted; also recorded: no critical side effect becoming a problem is observed
same,inclination of the regression line of 1/sCr versus time,"[3]; 200 mg/day group (n=11), after the administration (24 weeks), mean±S.D., p=0.01, Non-Patent Document 2",−0.00046±0.00043
same,inclination of the regression line of 1/sCr versus time,"[3]; 200 mg/day group (n=11), before the administration, mean±S.D., Non-Patent Document 2",−0.00075±0.00066
same,inclination of the regression line of 1/sCr versus time,"[3]; 200 mg/day group (n=12), after the administration, p=0.016, Non-Patent Document 1",−0.0004±0.00047
same,inclination of the regression line of 1/sCr versus time,"[3]; 200 mg/day group (n=12), before the administration, Non-Patent Document 1",−0.00078±0.00064
same,inclination of the regression line of 1/sCr versus time,"[3]; 400 mg/day group (n=11), after the administration (24 weeks), mean±S.D., p=0.02, Non-Patent Document 2",−0.00066±0.00097
same,inclination of the regression line of 1/sCr versus time,"[3]; 400 mg/day group (n=11), after the administration, p=0.024, Non-Patent Document 1",−0.00068±0.00096
same,inclination of the regression line of 1/sCr versus time,"[3]; 400 mg/day group (n=11), before the administration, Non-Patent Document 1",−0.00098±0.00077
same,inclination of the regression line of 1/sCr versus time,"[3]; 400 mg/day group (n=11), before the administration, mean±S.D., Non-Patent Document 2",−0.00098±0.00077
same,side effect in the clinical test and in the clinical symptom,[3]; 200 or 400 mg/day orally for 24 weeks,No critical side effect
same,accumulation of the pharmaceutical agent,"[3]; during the course of the clinical test, 200 or 400 mg/day for 24 weeks",no accumulation
